These results are taken from patent US12331033B2, “Inhibitors of SARM1” (Disarm Therapeutics, Inc., priority 2020, dated 2025).

This assay deals with SARM1 (ARM-SAM-TIR) (Homo sapiens (Human), UniProt Q6SZW1). Description: ARM-SAM-TIR SARM1 IC50 assay (NADase activity, NAD+ cleavage, RapidFire MS). The assay is classed as biochemical. The settings on record: ARM-SAM-TIR lysate 5 μg/mL, 2 h pre-incubation, 5 μM NAD+, 2 hr room temperature. As for the experimental part: This Example describes an assay of ARM-SAM-TIR NADase activity and use of this assay to measure the efficacy of compounds of Formula I or Formula I′ to block SARM1 mediated NAD+ cleavage. This assay was optimized in such a way as to characterize the efficacy of the compounds in Formula I or Formula I′ to inhibit SARM1 activity and to calculate an IC50 value for each compound. This assay makes use of full length SARM1, which encompasses the ARM, SAM and TIR domains.
Chain of SARM1 (ARM-SAM-TIR) (Q6SZW1 other isoform, or with tags, fused parts or gaps): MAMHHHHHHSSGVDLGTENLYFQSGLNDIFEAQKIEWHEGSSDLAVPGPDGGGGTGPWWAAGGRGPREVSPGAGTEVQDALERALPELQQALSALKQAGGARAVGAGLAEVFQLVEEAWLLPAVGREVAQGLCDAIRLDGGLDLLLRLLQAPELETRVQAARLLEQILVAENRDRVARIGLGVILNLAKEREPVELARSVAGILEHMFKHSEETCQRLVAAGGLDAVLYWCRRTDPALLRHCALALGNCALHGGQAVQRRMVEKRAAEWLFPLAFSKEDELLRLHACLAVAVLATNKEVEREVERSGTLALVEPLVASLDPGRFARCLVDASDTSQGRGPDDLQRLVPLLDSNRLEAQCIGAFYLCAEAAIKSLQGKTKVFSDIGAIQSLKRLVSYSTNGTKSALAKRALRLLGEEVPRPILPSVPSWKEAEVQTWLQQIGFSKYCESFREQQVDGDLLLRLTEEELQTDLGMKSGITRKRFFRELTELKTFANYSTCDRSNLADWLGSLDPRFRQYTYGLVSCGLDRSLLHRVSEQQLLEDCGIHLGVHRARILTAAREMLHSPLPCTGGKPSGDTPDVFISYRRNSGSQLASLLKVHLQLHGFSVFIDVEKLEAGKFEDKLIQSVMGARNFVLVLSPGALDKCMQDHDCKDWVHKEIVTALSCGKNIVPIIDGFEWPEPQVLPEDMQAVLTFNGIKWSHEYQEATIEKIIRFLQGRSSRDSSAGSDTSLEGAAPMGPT
NRK1-HEK293T cells were seeded onto 150 cm^2 plates at 20×10^6 cells per plate. The next day, the cells were transfected with 15 μg ARM-SAM-TIR expression plasmid, SEQ ID NO: 1.
The cultures were supplemented with 1 mM NR at time of transfection to minimize toxicity from ARM-SAM-TIR overexpression. Forty-eight hours after transfection, cells were harvested, pelleted by centrifugation at 1,000 rpm (Sorvall ST 16R centrifuge, Thermo Fisher), and washed once with cold PBS (0.01 M phosphate buffered saline NaCl 0.138 M; KCl 0.0027 M; pH 7.4). The cells were resuspended in PBS with protease inhibitors (cOmplete™ protease inhibitor cocktail, Roche product #11873580001) and cell lysates were prepared by sonication (Branson Sonifer 450, output=3, 20 episodes of stroke). The lysates were centrifuged (12,000×g for 10 min at 4° C.) to remove cell debris and the supernatants (containing ARM-SAM-TIR protein) were stored at −80° C. for later use in the in vitro ARM-SAM-TIR NADase assay (see below). Protein concentration was determined by the Bicinchoninic (BCA) method and used to normalize lysate concentrations.
The enzymatic assay was performed in a 384-well polypropylene plate in Dulbecco's PBS buffer in a final assay volume of 20 μL. ARM-SAM-TIR lysate with a final concentration of 5 μg/mL was pre-incubated with the respective compound at 1% DMSO final assay concentration over 2 h at room temperature. The reaction was initiated by addition of 5 μM final assay concentration of NAD+ as substrate. After a 2 hr room temperature incubation, the reaction was terminated with 40 μL of stop solution of 7.5% trichloroactetic acid in acetonitrile. The NAD+ and ADPR concentrations were analyzed by a RapidFire High Throughput Mass Spectrometry System (Agilent Technologies, Santa Clara, Calif.) using an API4000 triple quadrupole mass spectrometer (AB Sciex Framingham, Mass.).
Take `O=C(CCc1ccc(Cl)cc1)Nc1nnc(-c2cncs2)[nH]1` [Example 60]: the IC50 (usually the point on the concentration scale where inhibition reaches its midpoint) is < 5 µM.

In the case of `O=C(CCc1ccc(Cl)cc1)Nc1nc(-c2ccncc2)ns1` [Example 61], the IC50 is < 5 µM.

For the compound `O=C(CCc1ccc(C(F)(F)F)cc1)Nc1cc(-c2ccncc2)[nH]n1` [Example 62], the IC50 is < 5 µM.

In the case of `O=C(CC1CCNc2ccccc21)Nc1nnc(-c2ccncc2)[nH]1` (stereo not drawn) [Example 63], the IC50 was > 30 µM.

Consider `CC(C)(C)OC(=O)N1CCC(CC(=O)Nc2nnc(-c3ccncc3)[nH]2)c2ccccc21` (stereo not drawn) [Example 64], for which the IC50 was > 30 µM.

For the compound `O=C(Cc1ccc(Cl)cc1)Nc1nnc(-c2ccncc2)[nH]1` [Example 65], the IC50 was < 5 µM.

For the compound `O=C(Nc1nnc(-c2ccncc2)[nH]1)C12CC(c3ccccc3)(C1)C2` [Example 66], the IC50 is < 5 µM.

As to `O=C(C[C@@H]1CCc2ccccc21)Nc1nnc(-c2ccncc2)[nH]1` [Example 67], the IC50 is < 5 µM.

Consider `O=C(C[C@H]1CCc2ccccc21)Nc1nnc(-c2ccncc2)[nH]1` [Example 68], for which the IC50 lay within 5 to 15 µM.

Take `O=C(CNc1ccccc1)Nc1nnc(-c2ccncc2)[nH]1` [Example 69]: the concentration for half-maximal inhibition (IC50) lay in the range of 5 to 15 µM.

In the case of `CC(C)(C)OC(=O)N(CC(=O)Nc1nnc(-c2ccncc2)[nH]1)c1ccccc1` [Example 70], the IC50 is > 30 µM.

As for `O=C(C[C@@H]1CCOc2ccccc21)Nc1nnc(-c2ccncc2)[nH]1` [Example 71], the concentration for half-maximal inhibition (IC50) is < 5 µM.

As for `O=C(C[C@H]1CCOc2ccccc21)Nc1nnc(-c2ccncc2)[nH]1` [Example 72], the IC50 was < 5 µM.

On to `O=C(CC1COCc2ccccc21)Nc1nnc(-c2ccncc2)[nH]1` (stereo not drawn) [Example 73], for which the IC50 lay in the range of 5 to 15 µM.

For the compound `O=C(CCc1ccc(O)cc1)Nc1nnc(-c2ccncc2)[nH]1` [Example 74], the IC50 is > 30 µM.

Regarding `O=C(CCc1ccc(OC(F)F)cc1)Nc1nnc(-c2ccncc2)[nH]1` [Example 75], the half-maximal inhibitory concentration (IC50) was < 5 µM.

`O=C(CN1CCCc2ccccc21)Nc1nnc(-c2ccncc2)[nH]1` [Example 76]: the IC50 was > 30 µM.

`NS(=O)(=O)c1ccc(CCC(=O)Nc2nnc(-c3ccncc3)[nH]2)cc1` [Example 77] gave an IC50 of 15 to 30 µM.

The compound `CC(C)(C)c1ccc(CCC(=O)Nc2nnc(-c3ccncc3)[nH]2)cc1` [Example 78] returned an IC50 of 5 to 15 µM.

`N#Cc1ccc(CC(=O)Nc2nnc(-c3ccncc3)[nH]2)cc1` [Example 79]: the IC50 lay in the range of 5 to 15 µM.

Consider `O=C(CN1C(=O)COc2ccccc21)Nc1nnc(-c2ccncc2)[nH]1` [Example 80], for which the IC50 is 15 to 30 µM.

As for `O=C(CCc1ccc(Cl)s1)Nc1nnc(-c2ccncc2)[nH]1` [Example 81], the IC50 was < 5 µM.

With `N[C@H](Cc1ccc(Cl)cc1)C(=O)Nc1nnc(-c2ccncc2)[nH]1` [Example 82], the IC50 is < 5 µM.

In turn, `Cc1ccc(CCC(=O)Nc2nnc(-c3ccncc3)[nH]2)cn1` [Example 83] came in with an IC50 of 5 to 15 µM.

For `O=C(CCc1ccc(Cl)nc1)Nc1nnc(-c2ccncc2)[nH]1` [Example 84], the IC50 was < 5 µM.

Compound `O=C(CCc1ccc(C(F)(F)F)cn1)Nc1nnc(-c2ccncc2)[nH]1` [Example 85] yielded an IC50 of 5 to 15 µM.

For the compound `O=C(CCc1ccc(C(F)(F)F)nc1)Nc1nnc(-c2ccncc2)[nH]1` [Example 86], the IC50 was < 5 µM.

`O=C(CCc1cnc(C(F)(F)F)nc1)Nc1nnc(-c2ccncc2)[nH]1` [Example 87]: the half-maximal inhibitory concentration (IC50) was < 5 µM.

In the case of `O=C(Nc1nnc(-c2ccncc2)[nH]1)[C@H]1CCc2ccccc2C1` [Example 88], the IC50 was < 5 µM.

In the case of `O=C(Nc1nnc(-c2ccncc2)[nH]1)[C@@H]1CCc2ccccc2C1` [Example 89], the IC50 lay within 5 to 15 µM.

Take `O=C(C[C@H]1CCCc2ccccc21)Nc1nnc(-c2ccncc2)[nH]1` [Example 90]: the IC50 is < 5 µM.

In the case of `O=C(C[C@@H]1CCCc2ccccc21)Nc1nnc(-c2ccncc2)[nH]1` [Example 91], the IC50 was < 5 µM.

For `O=C(NCc1ccc(Cl)cc1)Nc1nnc(-c2ccncc2)[nH]1` [Example 92], the 50% inhibitory concentration (IC50) is < 5 µM.

`C[C@@H](CC(=O)Nc1nnc(-c2ccncc2)[nH]1)c1ccccc1` [Example 93]: the IC50 was in the range of 15 to 30 µM.

The compound `C[C@H](CC(=O)Nc1nnc(-c2ccncc2)[nH]1)c1ccccc1` [Example 94] displayed an IC50 of 15 to 30 µM.

In turn, `CC(Cc1ccccc1)C(=O)Nc1nnc(-c2ccncc2)[nH]1` (stereo not drawn) [Example 95] had an IC50 of 5 to 15 µM.

The compound `CC(C)(Cc1ccccc1)C(=O)Nc1nnc(-c2ccncc2)[nH]1` [Example 96] had a half-maximal inhibitory concentration (IC50) of 5 to 15 µM.

Consider `O=C(CCc1ccc(C(F)F)cc1)Nc1nnc(-c2ccncc2)[nH]1` [Example 97], for which the IC50 was < 5 µM.

In the case of `CN(C(=O)CCc1ccccc1)c1nnc(-c2ccncc2)[nH]1` [Example 98], the IC50 lay within 5 to 15 µM.

In turn, `O=C(CCc1ccc(Cl)cc1)Nc1ncc(-c2ccncc2)s1` [Example 99] came in with an IC50 of 5 to 15 µM.

For `O=C(CCc1ccc(Cl)cc1)Nc1nnc(-c2ccncc2)o1` [Example 100], the half-maximal inhibitory concentration (IC50) is > 30 µM.

In the case of `O=C(CCc1ccc(Cl)c(Cl)c1)Nc1nnc(-c2ccncc2)[nH]1` [Example 101], the concentration for half-maximal inhibition (IC50) is < 5 µM.

The compound `O=C(COc1ccc(Cl)cc1)Nc1nnc(-c2ccncc2)[nH]1` [Example 102] registered an IC50 of 5 to 15 µM.

`O=C(Nc1nnc(-c2ccncc2)[nH]1)[C@@H]1C[C@@H]1c1ccccc1` [Example 103] came in with a half-inhibitory concentration (IC50) of 15 to 30 µM.

Compound `O=C(Nc1nnc(-c2ccncc2)[nH]1)[C@@H]1C[C@H]1c1ccccc1` [Example 104] showed an IC50 of 5 to 15 µM.

With `O=C(CCc1ccc(Br)cc1)Nc1nnc(-c2ccncc2)[nH]1` [Example 105], the IC50 is < 5 µM.

For `O=C(CCc1ccc(Cl)cn1)Nc1nnc(-c2ccncc2)[nH]1` [Example 106], the IC50 is < 5 µM.

Consider `COc1ccccc1CCC(=O)Nc1nnc(-c2ccncc2)[nH]1` [Example 107], for which the IC50 is < 5 µM.

The compound `COc1cccc(CCC(=O)Nc2nnc(-c3ccncc3)[nH]2)c1` [Example 108] showed an IC50 of 5 to 15 µM.

For the compound `O=C(CC1CCOc2ccccc21)Nc1nnc(-c2ccncc2)[nH]1` (stereo not drawn) [Example 109], the IC50 is < 5 µM.

As to `Cn1nc(-c2ccncc2)nc1NC(=O)CCc1ccccc1` [Example 110], the concentration for half-maximal inhibition (IC50) was > 30 µM.

As to `Cn1nc(NC(=O)CCc2ccccc2)nc1-c1ccncc1` [Example 111], the concentration for half-maximal inhibition (IC50) was > 30 µM.

In the case of `O=C(CCc1ccncc1)Nc1nnc(-c2ccncc2)[nH]1` [Example 112], the IC50 fell in the range of 15 to 30 µM.

On to `O=C(CCc1ccc(F)cc1Cl)Nc1nnc(-c2ccncc2)[nH]1` [Example 113], for which the IC50 was < 5 µM.

Take `O=C(CCc1ccc(Cl)cc1)Nc1cc(-c2ccncc2)[nH]n1` [Example 114]: the IC50 was < 5 µM.

With `O=C(CCc1ccc(Cl)cc1)Nc1nnc(-c2ccncc2)s1` [Example 115], the IC50 is > 30 µM.

In turn, `O=C(Nc1nnc(-c2ccncc2)[nH]1)C1Cc2ccccc2C1` [Example 116] displayed an IC50 of 5 to 15 µM.

For `O=C(CC1CCc2ccccc21)Nc1nnc(-c2ccncc2)[nH]1` (stereo not drawn) [Example 117], the IC50 is < 5 µM.

Turning to `O=C(CCc1c(F)c(F)c(F)c(F)c1F)Nc1nnc(-c2ccncc2)[nH]1` [Example 118], the IC50 was < 5 µM.

On to `N#Cc1ccc(CCC(=O)Nc2nnc(-c3ccncc3)[nH]2)cc1` [Example 119], for which the IC50 is < 5 µM.
